Laboratory results published in ChEMBL document CHEMBL1649295, “Pharmacokinetic-pharmacodynamic modeling of the in vitro activities of oxazolidinone antimicrobial agents against methicillin-resistant Staphylococcus aureus” (Antimicrob Agents Chemother, 2009).
≈ marks a conversion by molar mass, not a printed value. Calls of active or inactive are those of the source. The rule behind the calls is not given here.

How the values were obtained:
[1] = Chemical stability of the compound assessed as compound degradation at 16 times MIC after 24 hrs by RP-HPLC analysis; type: physicochemical
[2] = test system: Staphylococcus aureus; experiment: Antibacterial activity against methicillin-resistant Staphylococcus aureus OC2878 by broth macrodilution method
[3] = test system: Staphylococcus aureus; experiment: Antibacterial activity against methicillin-resistant Staphylococcus aureus OC2878 assessed as log reduction in bacterial count at 8 times MIC after 24 hrs by time kill study; type: functional
[4] = test system: Staphylococcus aureus; experiment: Antibacterial activity against methicillin-resistant Staphylococcus aureus OC2878 assessed as inhibition of bacterial regrowth at 16 times MIC after 8 hrs by dynamic time kill study; type: functional, organism-based
[5] = test system: Staphylococcus aureus; experiment: Antibacterial activity against methicillin-resistant Staphylococcus aureus OC2878 assessed as inhibition of bacterial regrowth at 16 times MIC after 24 hrs by dynamic time kill study; type: functional, organism-based

Compound | Stability [1] | MIC [2] [µg/mL] | log10cfu [3] | inhibition [4] | inhibition [5]
CC(=O)NC[C@H]1CN(c2ccc(N3CCOCC3)c(F)c2)C(=O)O1 [LINEZOLID] | Stable | 1 (≈ 2.96 µM) | 2 | inactive | –
CC(=O)NC[C@H]1CN(c2ccc(N3Cc4cn(C)nc4C3)c(F)c2)C(=O)O1 | – | 0.5 (≈ 1.34 µM) | 2 | – | Active
